#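 Five compound concentrations were applied to cells in 96-well plates for 48 hours; endpoints were derived by simple linear interpolation of the resulting dose-response curve. GI50 = concentration required for 50% inhibition of growth. TGI denotes the concentration required for complete inhibition of growth.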
# Legend:
# Assay in all cases: DTP human tumour cell line panel, 48 h
# HCT-15 colon = tested on: HCT-15 colon
# OVCAR-8 ovarian = tested on: OVCAR-8 ovarian
# SK-OV-3 ovarian = tested on: SK-OV-3 ovarian
# COLO 205 colon = tested on: COLO 205 colon
# M14 melanoma = tested on: M14 melanoma
# SK-MEL-5 melanoma = tested on: SK-MEL-5 melanoma
# A549 NSCLC = tested on: A549 NSCLC
# HL-60(TB) leukemia = tested on: HL-60(TB) leukemia
# K-562 leukemia = tested on: K-562 leukemia
# UACC-257 melanoma = tested on: UACC-257 melanoma
# OVCAR-4 ovarian = tested on: OVCAR-4 ovarian
# SN12C renal = tested on: SN12C renal
# HCC-2998 colon = tested on: HCC-2998 colon
# SW-620 colon = tested on: SW-620 colon
# RXF 393 renal = tested on: RXF 393 renal
# HT29 colon = tested on: HT29 colon
# SF-295 CNS = tested on: SF-295 CNS
# T-47D breast = tested on: T-47D breast
# NCI/ADR-RES ovarian = tested on: NCI/ADR-RES ovarian
# OVCAR-5 ovarian = tested on: OVCAR-5 ovarian
# DU-145 prostate = tested on: DU-145 prostate
# 786-0 renal = tested on: 786-0 renal
# SNB-19 CNS = tested on: SNB-19 CNS
# NCI-H522 lung = tested on: NCI-H522 lung
# UO-31 renal = tested on: UO-31 renal
# CCRF-CEM leukemia = tested on: CCRF-CEM leukemia
# IGROV1 ovarian = tested on: IGROV1 ovarian
# U251 CNS = tested on: U251 CNS
# HOP-62 NSCLC = tested on: HOP-62 NSCLC
# OVCAR-3 ovarian = tested on: OVCAR-3 ovarian
# MALME-3M melanoma = tested on: MALME-3M melanoma
# UACC-62 melanoma = tested on: UACC-62 melanoma
# MCF7 breast = tested on: MCF7 breast
# MDA-MB-231 breast = tested on: MDA-MB-231 breast
# MDA-MB-435 = tested on: MDA-MB-435
# ACHN renal = tested on: ACHN renal
# EKVX NSCLC = tested on: EKVX NSCLC
# BT-549 breast = tested on: BT-549 breast
# SF-268 CNS = tested on: SF-268 CNS
# RPMI-8226 leukemia = tested on: RPMI-8226 leukemia
# HOP-92 NSCLC = tested on: HOP-92 NSCLC
# CAKI-1 renal = tested on: CAKI-1 renal
# KM12 colon = tested on: KM12 colon
# A498 renal = tested on: A498 renal
# SR leukemia = tested on: SR leukemia
# NCI-H460 lung = tested on: NCI-H460 lung
# SK-MEL-2 melanoma = tested on: SK-MEL-2 melanoma
# HCT-116 colon = tested on: HCT-116 colon
# TK-10 renal = tested on: TK-10 renal
# MOLT-4 leukemia = tested on: MOLT-4 leukemia
# LOX IMVI melanoma = tested on: LOX IMVI melanoma
# SNB-75 CNS = tested on: SNB-75 CNS
# HS 578T breast = tested on: HS 578T breast
# SF-539 CNS = tested on: SF-539 CNS
# NCI-H23 lung = tested on: NCI-H23 lung
# SK-MEL-28 melanoma = tested on: SK-MEL-28 melanoma
# NCI-H226 lung = tested on: NCI-H226 lung
# PC-3 prostate = tested on: PC-3 prostate
smiles,measurement,setting,value
COc1cc(C(=O)c2c(-c3ccccc3)oc3c(OC)cccc23)cc(OC)c1O,GI50,HCT-15 colon,0.455 µM
same,TGI,HCT-15 colon,> 100 µM
same,GI50,OVCAR-8 ovarian,0.631 µM
same,TGI,OVCAR-8 ovarian,> 100 µM
same,GI50,SK-OV-3 ovarian,0.765 µM
same,TGI,SK-OV-3 ovarian,> 100 µM
same,GI50,COLO 205 colon,2.05 µM
same,TGI,COLO 205 colon,5.23 µM
same,GI50,M14 melanoma,0.351 µM
same,TGI,M14 melanoma,> 100 µM
same,GI50,SK-MEL-5 melanoma,0.651 µM
same,TGI,SK-MEL-5 melanoma,8.62 µM
same,GI50,A549 NSCLC,0.751 µM
same,TGI,A549 NSCLC,> 100 µM
same,GI50,HL-60(TB) leukemia,0.284 µM
same,TGI,HL-60(TB) leukemia,1.02 µM
same,GI50,K-562 leukemia,0.328 µM
same,TGI,K-562 leukemia,> 100 µM
same,GI50,UACC-257 melanoma,63.5 µM
same,TGI,UACC-257 melanoma,> 100 µM
same,GI50,OVCAR-4 ovarian,2.82 µM
same,TGI,OVCAR-4 ovarian,> 100 µM
same,GI50,SN12C renal,1.46 µM
same,TGI,SN12C renal,> 100 µM
same,GI50,HCC-2998 colon,1.96 µM
same,TGI,HCC-2998 colon,> 100 µM
same,GI50,SW-620 colon,0.454 µM
same,TGI,SW-620 colon,> 100 µM
same,GI50,RXF 393 renal,0.313 µM
same,TGI,RXF 393 renal,2 µM
same,GI50,HT29 colon,3.15 µM
same,TGI,HT29 colon,> 33.7 µM
same,GI50,SF-295 CNS,0.569 µM
same,TGI,SF-295 CNS,> 21.5 µM
same,GI50,T-47D breast,1.2 µM
same,TGI,T-47D breast,> 100 µM
same,GI50,NCI/ADR-RES ovarian,0.454 µM
same,TGI,NCI/ADR-RES ovarian,> 100 µM
same,GI50,OVCAR-5 ovarian,3.22 µM
same,TGI,OVCAR-5 ovarian,> 100 µM
same,GI50,DU-145 prostate,0.554 µM
same,TGI,DU-145 prostate,> 100 µM
same,GI50,786-0 renal,0.63 µM
same,TGI,786-0 renal,14.3 µM
same,GI50,SNB-19 CNS,1.76 µM
same,TGI,SNB-19 CNS,> 100 µM
same,GI50,NCI-H522 lung,0.269 µM
same,TGI,NCI-H522 lung,5.18 µM
same,GI50,UO-31 renal,0.648 µM
same,TGI,UO-31 renal,> 100 µM
same,GI50,CCRF-CEM leukemia,0.414 µM
same,TGI,CCRF-CEM leukemia,> 100 µM
same,GI50,IGROV1 ovarian,0.654 µM
same,TGI,IGROV1 ovarian,> 100 µM
same,GI50,U251 CNS,0.507 µM
same,TGI,U251 CNS,> 100 µM
same,GI50,HOP-62 NSCLC,0.641 µM
same,TGI,HOP-62 NSCLC,> 100 µM
same,GI50,OVCAR-3 ovarian,0.302 µM
same,TGI,OVCAR-3 ovarian,1.66 µM
same,GI50,MALME-3M melanoma,0.509 µM
same,TGI,MALME-3M melanoma,> 100 µM
same,GI50,UACC-62 melanoma,0.583 µM
same,TGI,UACC-62 melanoma,> 100 µM
same,GI50,MCF7 breast,0.351 µM
same,TGI,MCF7 breast,> 100 µM
same,GI50,MDA-MB-231 breast,1.5 µM
same,TGI,MDA-MB-231 breast,16.1 µM
same,GI50,MDA-MB-435,0.162 µM
same,TGI,MDA-MB-435,0.459 µM
same,GI50,ACHN renal,0.664 µM
same,TGI,ACHN renal,> 100 µM
same,GI50,EKVX NSCLC,0.876 µM
same,TGI,EKVX NSCLC,> 100 µM
same,GI50,BT-549 breast,1.19 µM
same,TGI,BT-549 breast,7.31 µM
same,GI50,SF-268 CNS,1.04 µM
same,TGI,SF-268 CNS,> 100 µM
same,GI50,RPMI-8226 leukemia,0.403 µM
same,TGI,RPMI-8226 leukemia,5.75 µM
same,GI50,HOP-92 NSCLC,0.276 µM
same,TGI,HOP-92 NSCLC,2.25 µM
same,GI50,CAKI-1 renal,0.404 µM
same,TGI,CAKI-1 renal,26.7 µM
same,GI50,KM12 colon,0.45 µM
same,TGI,KM12 colon,> 51.2 µM
same,GI50,A498 renal,0.378 µM
same,TGI,A498 renal,3.53 µM
same,GI50,SR leukemia,0.339 µM
same,TGI,SR leukemia,53 µM
same,GI50,NCI-H460 lung,0.401 µM
same,TGI,NCI-H460 lung,> 22.1 µM
same,GI50,SK-MEL-2 melanoma,2.28 µM
same,TGI,SK-MEL-2 melanoma,> 100 µM
same,GI50,HCT-116 colon,0.563 µM
same,TGI,HCT-116 colon,> 100 µM
same,GI50,TK-10 renal,15 µM
same,TGI,TK-10 renal,> 81.9 µM
same,GI50,MOLT-4 leukemia,0.605 µM
same,TGI,MOLT-4 leukemia,> 100 µM
same,GI50,LOX IMVI melanoma,0.608 µM
same,TGI,LOX IMVI melanoma,> 100 µM
same,GI50,SNB-75 CNS,0.184 µM
same,TGI,SNB-75 CNS,0.605 µM
same,GI50,HS 578T breast,0.405 µM
same,GI50,SF-539 CNS,0.311 µM
same,TGI,SF-539 CNS,2.64 µM
same,GI50,NCI-H23 lung,0.864 µM
same,TGI,NCI-H23 lung,> 100 µM
same,GI50,SK-MEL-28 melanoma,4.09 µM
same,TGI,SK-MEL-28 melanoma,> 100 µM
same,GI50,NCI-H226 lung,3.1 µM
same,TGI,NCI-H226 lung,> 100 µM
same,GI50,PC-3 prostate,0.45 µM
same,TGI,PC-3 prostate,> 37.2 µM
